Data set [1] deals with T1, human vasopressin V1b receptor (Homo sapiens, UniProt P47901).
T1 construct: expressed in transfected cells; host or cells: CHO-K1 (cell line hV1b_3H2_CHO)
T1 sequence (P47901 1-424): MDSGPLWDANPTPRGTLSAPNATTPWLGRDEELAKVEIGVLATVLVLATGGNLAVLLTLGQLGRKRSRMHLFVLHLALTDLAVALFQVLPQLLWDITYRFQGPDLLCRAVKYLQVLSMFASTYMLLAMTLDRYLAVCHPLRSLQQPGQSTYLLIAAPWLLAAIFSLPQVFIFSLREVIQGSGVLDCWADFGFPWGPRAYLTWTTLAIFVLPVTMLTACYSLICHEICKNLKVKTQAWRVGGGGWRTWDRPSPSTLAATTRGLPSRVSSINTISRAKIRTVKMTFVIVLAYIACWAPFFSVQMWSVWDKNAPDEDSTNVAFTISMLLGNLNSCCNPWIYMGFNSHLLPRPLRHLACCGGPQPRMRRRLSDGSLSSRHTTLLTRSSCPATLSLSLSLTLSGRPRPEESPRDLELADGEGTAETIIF
The experiment in a line: Vasopressin V1b receptor binding assay. As to conditions: read-out: Ki(h-V1b)*. As for the experimental part:
1. Vasopressin V1b Receptor Binding Assay:
The substance concentration was further diluted 1:5 in the assay mixture (2% DMSO in the mixture).
All determinations were carried out as triplicate determinations.

Data set [2] concerns the target human vasopressin V1a receptor (Homo sapiens, UniProt P37288). The experiment in a line: Vasopressin V1a receptor binding assay. As to conditions: selectivity quotient, human V1a versus human V1b.
The nature of data set [3]: Determination of the microsomal half-life / microsomal clearance (human liver microsomes). The conditions noted are these: pH 7.4, 0.5 μM test substance. The data set is classed as in vitro ADME. As to the method:
5. Determination of the Microsomal Half-Life:
The metabolic stability of the compounds of the invention was determined in the following assay.
The test substances were incubated in a concentration of 0.5 μM as follows:
0.5 μM test substance are preincubated together with liver microsomes from different species (from rat, human or other species) (0.25 mg of microsomal protein/ml) in 0.05 M potassium phosphate buffer of pH 7.4 in microtiter plates at 37° C. for 5 min. The reaction is started by adding NADPH (1 mg/mL). After 0, 5, 10, 15, 20 and 30 min, 50 μl aliquots are removed, and the reaction is immediately stopped and cooled with the same volume of acetonitrile. The samples are frozen until analyzed. The remaining concentration of undegraded test substance is determined by MSMS. The half-life (T½) is determined from the gradient of the signal of test substance/unit time plot, it being possible to calculate the half-life of the test substance, assuming first order kinetics, from the decrease in the concentration of the compound with time. The microsomal clearance (mCl) is calculated from mCl=In2/T½/(content of microsomal protein in mg/ml)×1000 […] (modified from references: Di, The Society for Biomoleculur Screening, 2003, 453-462; Obach, DMD, 1999 vol. 27. N 11, 1350-1359).
(In general: Liver microsomes are a subcellular fraction often used to study metabolism.)

For data set [4], the target named is T2, recombinant human oxytocin receptors (Homo sapiens, UniProt P30559).
T2 construct: expressed in transfected cells; host or cells: HEK-293 (transient)
T2 sequence (P30559 1-389): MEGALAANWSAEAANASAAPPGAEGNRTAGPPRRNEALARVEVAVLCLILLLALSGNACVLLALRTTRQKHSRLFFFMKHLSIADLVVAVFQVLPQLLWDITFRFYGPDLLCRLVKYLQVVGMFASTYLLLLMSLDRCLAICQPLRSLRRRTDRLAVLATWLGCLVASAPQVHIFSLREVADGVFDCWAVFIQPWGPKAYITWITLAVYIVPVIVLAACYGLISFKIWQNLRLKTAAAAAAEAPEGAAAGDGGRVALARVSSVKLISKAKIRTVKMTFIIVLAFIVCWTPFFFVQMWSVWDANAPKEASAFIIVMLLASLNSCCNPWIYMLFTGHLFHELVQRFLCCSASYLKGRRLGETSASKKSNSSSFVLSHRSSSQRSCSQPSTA
The data set is described as follows: Oxytocin receptor binding assay. The conditions noted are these: selectivity quotient, human OT versus human V1b. As to the method:
4. Oxytocin Receptor Binding Assay
Confluent HEK-293 cells with transiently expressing recombinant human oxytocin receptors were centrifuged at 750×g at room temperature for 5 minutes. The residue was taken up in ice-cold lysis buffer (50 mM Tris-HCl, 10% glycerol, pH 7.4 and Roche complete protease inhibitor) and subjected to an osmotic shock at 4° C. for 20 minutes. The lyzed cells were then centrifuged at 750×g at 4° C. for 20 minutes, the residue was taken up in incubation buffer, and aliquots of 10^7 cells/ml were prepared. The aliquots were frozen at −80° C. until used.
On the day of the experiment, the cells were thawed, diluted with incubation buffer and homogenized using a Multipette Combitip (Eppendorf, Hamburg). […] The nonspecific binding was determined with 10^−6 M oxytocin (Bachem AG, H2510). Triplicate determinations were set up. Bound and free radioligand were separated by filtration under vacuum with Whatman GF/B glass fiber filters with the aid of a Skatron cell harvester 7000. The bound radioactivity was determined by liquid scintillation measurement in a Tricarb Beta counter, model 2000 or 2200CA (Packard).

Structures are written as SMILES. Structures can show the parent of a compound that is named as a salt.

The Ki is the dissociation constant of the complex between target and ligand, obtained from inhibition or displacement. One may read the microsomal CLint as the capacity of the preparation to metabolise the compound, expressed as a volume cleared per time. High values mean rapid turnover, low ones slow turnover.

Chain of human vasopressin V1a receptor (P37288 whole entry): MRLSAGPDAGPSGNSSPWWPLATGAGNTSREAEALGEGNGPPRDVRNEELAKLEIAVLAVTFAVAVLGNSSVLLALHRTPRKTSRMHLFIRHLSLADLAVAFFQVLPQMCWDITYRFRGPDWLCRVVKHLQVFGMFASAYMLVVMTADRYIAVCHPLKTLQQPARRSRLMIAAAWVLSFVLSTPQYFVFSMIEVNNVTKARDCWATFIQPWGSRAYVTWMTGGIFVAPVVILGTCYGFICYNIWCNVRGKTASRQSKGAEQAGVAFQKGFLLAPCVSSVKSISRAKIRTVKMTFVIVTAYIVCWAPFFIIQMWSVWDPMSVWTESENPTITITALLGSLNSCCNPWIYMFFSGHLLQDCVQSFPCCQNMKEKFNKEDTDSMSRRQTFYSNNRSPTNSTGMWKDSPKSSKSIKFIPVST

Take `CCOc1ncccc1C1(OC(=O)N2CCN(C3CCN(C)CC3)CC2)C(=O)N(S(=O)(=O)c2ccc(OC)cc2OC)c2ccc(C#N)cc21` (racemic) [Example 1, (±)-5-Cyano-1-[(2,4-dimethoxyphenyl)sulfonyl]-3-(2-ethoxypyridin-3-yl)-2-oxo-2,3-dihydro-1H-indol-3-yl-4-(1-methylpiperidin-4-yl)piperazine-1-carboxylate]: in data set [1], the Ki is less than 10 nM. Also, the “Ki(h-V1a)/Ki(h-V1b)*” value in data set [2] was “+++ (>75)”. In data set [3], this molecule displayed an intrinsic metabolic clearance (microsomal CLint) at 0.5 μM of 75 to 200 µL/min/mg. In data set [4], the “Ki(h-OT)/Ki(h-V1b)*” value was “+++ (>45)”.

Turning to `CCOc1ncccc1C1(OC(=O)N2CCC(N3CCN(CC)CC3)CC2)C(=O)N(S(=O)(=O)c2ccc(OC)cc2OC)c2ccc(C#N)cc21` (racemic) [Example 37, (±)-5-Cyano-1-[(2,4-dimethoxyphenyl)sulfonyl]-3-(2-ethoxypyridin-3-yl)-2-oxo-2,3-dihydro-1 H-indol-3-yl-4-(4-ethylpiperazin-1-yl)piperidine-1-carboxylate], the inhibitory constant (Ki) in data set [1] is less than 10 nM. In addition, in data set [2], the “Ki(h-V1a)/Ki(h-V1b)*” value is “+++ (>75)”. Moreover, the microsomal CLint at 0.5 μM in data set [3] is 75 to 200 µL/min/mg. In addition, the “Ki(h-OT)/Ki(h-V1b)*” value in data set [4] is recorded as “+++ (>45)”.

`CCOc1ncccc1C1(OC(=O)N2CCC(N3CCNCC3)CC2)C(=O)N(S(=O)(=O)c2ccc(OC)cc2OC)c2ccc(C#N)cc21` (stereo not drawn) [Example 55, 5-Cyano-1-[(2,4-dimethoxyphenyl)sulfonyl]-3-(2-ethoxypyridin-3-yl)-2-oxo-2,3-dihydro-1H-indol-3-yl-4-piperazin-1-ylpiperidine-1-carboxylate as bis(trifluoroacetic acid) salt]: the Ki in data set [1] was less than 10 nM. Moreover, in data set [2], the “Ki(h-V1a)/Ki(h-V1b)*” value is given as “++ (>25-75)”. The same molecule registered an intrinsic clearance (microsomal CLint) at 0.5 μM in data set [3] of 75 to 200 µL/min/mg. The “Ki(h-OT)/Ki(h-V1b)*” value in data set [4] is given as “+ (15-25)”.
